Where two headings read alike, the source gives them in different places.
Legend:
[1] = test system: methylphenidate induced stereotypies; assay: Methylphenidate Antagonism; assay type: in vivo, mice; conditions: for ED50: Mus musculus, ip, read-out: MePh antg. ED50, i.p., mice, 2 hours before methylphenidate 60 mg/kg s.c.; for MePh antg. ED50: i.p., mice, 2 hours before methylphenidate 60 mg/kg s.c.
Protocol: The experiments were made as described by Pedersen and Christensen (1972) Acta Pharmacol. et Toxicol. 31, 488-496.--Briefly, test compounds or saline were injected i.p. 2 hours before methylphenidate, 60 mg/kg s.c. 3 pairs of mice were used for each dose level. After methylphenidate injection the mice were placed in observation cages for one hour. The cages were placed on corrugated paper, the corrugation facing upwards.

[2] = test system: 1-5-HTP-induced head shakes; assay: 1-5-HTP-induced head shakes; assay type: in vivo; conditions: rats, 1-5-HTP 75 mg/kg i.p. after citalopram; for ED50: Rattus norvegicus, sc, read-out: 1-5-HTP-antg. ED50; for 1-5-HTP-antg. ED50: s.c.
Protocol: The rats were pretreated subcutaneously with test compound or saline simultaneously with or 90 min before injection of citalopram (10 mg/kg s.c.).
Each group consisted of 4-12 rats.

5-HT2 receptors = biological target: T1, 5-HT2 receptors (Rattus norvegicus, UniProt P14842); assay: 3H-spiroperidol binding to 5-HT2 receptors; conditions: rat whole cortex, 0.5 nM 3H-spiroperidol, 0.3 μM sulpiride; read-out: 3H-SPI binding 5-HT2 IC50
T1 construct: Rat whole cortex was homogenized by an Ultra Turrax homogenizer; from tissue; host or cells: rat whole cerebral cortex, crude washed membranes
Protocol: ^3 H-spiroperidol binding to 5-HT2 receptors.
Rat whole cortex was homogenized by an Ultra Turrax homogenizer in 100 vol. of 50 mM Tris buffer pH 7.7. The homogenate was centrifuged at 20,000 g for 10 minutes at 4° C. The pellet was rehomogenized in another volume of buffer and centrifuged as mentioned above. The final pellet was rehomogenized in 50 mM Tris buffer pH 7.7 containing 120 mM NaCl, 5 mM KCl, 2 mM CaCl2 and 1 mM MgCl2 (ion mix) in a volume corresponding to 12.5 mg original tissue per ml.
Test drugs were dissolved in water; ^3 H-spiroperidol (NEN, 28-30 Ci/mmol) was diluted in 3 μM sulpiride, and 800 μl membrane suspension were added. Final concentration of ligand and sulpiride were 0.5 nM and 0.3 μM, respectively. The samples were incubated at 37° C. for 10 min. The samples were then filtered under vacuum through Whatman GF/B glass-fiber filters. The tubes were then rinsed with 5 ml incubation buffer, which was poured on the filters. The filters were finally washed twice with 5 ml buffer and placed in counting vials. After addition of 5 ml scintillation fluid (Lumagel) radioactivity was estimated by liquid scintillation counting. Non-specific binding was obtained by adding Mianserin (1 μM) to separate samples. Each drug was tested at least twice at 5 concentrations in triplicate. IC50-values were determined from log concentration-response curves.--The presence of sulpiride excluded binding to dopamine D-2 receptors.

[3] = test system: spontaneous hypertensive rats (SHR); assay: Antihypertensive effect in spontaneous hypertensive rats (SHR); assay type: in vivo; conditions: for change in vivo at 5 mg/kg / ED10: Rattus norvegicus, ip; for change in vivo at 5 mg/kg: 1 h; for Antihypertensive eff. SHR, max eff. in % of 5 mg/kg ip, DAP: diastolic pressure (DAP); for Antihypertensive eff. SHR, max eff. in % of 5 mg/kg ip, DAP / Antihypertensive eff. SHR, max eff. in % of 5 mg/kg ip, SAP: max change within one hour; for Antihypertensive eff. SHR, max eff. in % of 5 mg/kg ip, SAP: systolic pressure (SAP); for peripheral or central action: in words
Protocol: Antihypertensive effect in spontaneous hypertensive rats (SHR)
The femoral artery of male SHR is cannulated in anaestesia for blood pressure recordings. After a stabilization period of 11/2 h after discontinuation of the anaesthesia initial blood pressure curves are recorded and the systolic (SAP)/diastolic (DAP) pressure determined (-20, -10, 0, min. p.i.) Test substance is injected i.p. and the pressure curve recorded for one hour. The change in SAP/DAP is calculated in percent at mean initial values at different times (10, 20, 30, 40, 50 and 60 minutes after injection). At least two SHR are used per dose level. The maximum change is used for estimation of the drug effect.

5-HT pressor responses = assay: Antagonism to 5-HT pressor responses in pithed rats; assay type: in vivo; conditions: for change in vivo at 0.02 mg/kg / ED50: Rattus norvegicus, iv; for change in vivo at 0.02 mg/kg: read-out: Effects on pressor response of 5-HT, % eff. of 0.02 mg/kg, pithed rats, 0.02 mg/kg, jugular vein; for ED50: read-out: Effects on pressor response of 5-HT, ED50, pithed rats, jugular vein
Protocol: (§1) The rat is anaesthetized with ether, tracheotomized, artificial respired and pithed. The knitting-needle is introduced through the right orbita into the cranial cavity and passed through foramen magnum into the spinal canal as far as possible. The spinal cord is destroyed by turning the needle. After vagotomi both carotides are ligated and a catheter placed in the right one for pressure recording. The rat is adrenalectomized. […] The initial and post medication mean pressor effect is calculated, and the mean pressor effect is calculated as % of the initial value. Two to five preparations are employed for each dose level. The ED50 is determined.

[4] = test system: phenylephrine pressor responses; assay: Antagonism to phenylephrine pressor responses in pithed rats; assay type: in vivo; conditions: for ED50: Rattus norvegicus, iv, read-out: Effects on pressor response of Phenylephrine, ED50; for Phenylephr. antg./5-HT antg. (ratio): pithed rats, ratio of phenylephrine ED50 to 5-HT ED50
Protocol: as §1

[5] = read-out: Antihypertensive eff. SHR, max eff. in % of 5 mg/kg ip, DAP, 5 mg/kg ip, diastolic pressure (DAP), max change within one hour
[6] = read-out: Antihypertensive eff. SHR, max eff. in % of 5 mg/kg ip, SAP, 5 mg/kg ip, systolic pressure (SAP), max change within one hour
[7] = read-out: Antihypertensive eff. SHR, ED10 DAP
[8] = read-out: Antihypertensive eff. SHR, ED10 SAP

T1 sequence (P14842 whole entry): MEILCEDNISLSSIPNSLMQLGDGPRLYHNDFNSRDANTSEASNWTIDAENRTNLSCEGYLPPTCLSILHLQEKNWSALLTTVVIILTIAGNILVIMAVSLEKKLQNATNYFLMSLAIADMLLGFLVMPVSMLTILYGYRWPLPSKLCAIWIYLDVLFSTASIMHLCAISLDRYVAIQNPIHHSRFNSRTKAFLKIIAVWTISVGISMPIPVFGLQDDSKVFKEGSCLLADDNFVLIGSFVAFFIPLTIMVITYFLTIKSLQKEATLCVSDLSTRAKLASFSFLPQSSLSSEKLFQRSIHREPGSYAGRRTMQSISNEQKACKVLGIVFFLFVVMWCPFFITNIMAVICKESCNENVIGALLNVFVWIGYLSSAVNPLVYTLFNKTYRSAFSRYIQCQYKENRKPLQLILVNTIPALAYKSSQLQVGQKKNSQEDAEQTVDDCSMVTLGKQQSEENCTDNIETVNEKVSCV

O=C1NCCN1CCN1CCN([C@@H]2C[C@@H](c3ccc(F)cc3)c3ccc(F)cc32)CC1 (relative stereo) [compound 2]
ED50 [1]: 79 µmol/kg
ED50 [2]: 0.13 µmol/kg
IC50 (5-HT2 receptors): 0.0067 µM
change in vivo at 5 mg/kg [3, 5]: -19%
change in vivo at 5 mg/kg [3, 6]: -14%
ED10 [3, 7]: 4.1 µmol/kg
ED10 [3, 8]: 9.2 µmol/kg
change in vivo at 0.02 mg/kg (5-HT pressor responses): -89%
ED50 (5-HT pressor responses): 0.017 µmol/kg
ED50 [4]: 2.55 µmol/kg
Phenylephr. antg./5-HT antg. (ratio) [4]: 150

O=C1NCCN1CCN1CCN([C@@H]2C[C@@H](c3ccc(F)cc3)c3ccccc32)CC1 (relative stereo) [compound 1]
ED50 [1]: > 98 µmol/kg
ED50 [2]: 1.3 µmol/kg
IC50 (5-HT2 receptors): 0.025 µM
change in vivo at 5 mg/kg [3, 5]: -43%
change in vivo at 5 mg/kg [3, 6]: -33%
ED10 [3, 7]: 4.2 µmol/kg
ED10 [3, 8]: 5.9 µmol/kg
change in vivo at 0.02 mg/kg (5-HT pressor responses): -68%
ED50 (5-HT pressor responses): 0.024 µmol/kg
ED50 [4]: 3.13 µmol/kg

O=C1NCCN1CCN1CCN([C@@H]2C[C@@H](c3ccc(F)cc3)c3ccccc32)CC1 (single isomer, unassigned) [+1, (+)trans-1-[3-(4-fluorophenyl]indan-1-yl]-4-[2-(2-imidazolidinon-1-yl)ethyl]piperazine]
ED50 [1]: > 97 µmol/kg
1-5-HTP-antg. ED50 [2]: 1.5 µmol/kg
IC50 (5-HT2 receptors): 0.006 µM
Antihypertensive eff. SHR, max eff. in % of 5 mg/kg ip, DAP [3]: -47%
Antihypertensive eff. SHR, max eff. in % of 5 mg/kg ip, SAP [3]: -33%
ED10 [3, 7]: 1.2 µmol/kg
ED10 [3, 8]: 1.7 µmol/kg
peripheral or central action [3]: mainly possess periferal action
ED50 (5-HT pressor responses): 0.009 µmol/kg
Effects on pressor response of 5-HT, % eff. of 0.02 mg/kg (5-HT pressor responses; pithed rats, jugular vein): -81%
ED50 [4]: 3.21 µmol/kg
Phenylephr. antg./5-HT antg. (ratio) [4]: 357

OCCN1CCN([C@@H]2C[C@@H](c3ccc(F)cc3)c3ccc(C(F)(F)F)cc32)CC1 (racemic) [Tefludazine, (±)trans-4-[3-(4-fluorophenyl)-6-(trifluoromethyl)-indan-1-yl]-1-piperazineethanol, reference compound]
ED50 [1]: 0.06 µmol/kg
activity against methylphenidate induced stereotypies ([1]; in words): high activity
ED50 [2]: 0.039 µmol/kg
IC50 (5-HT2 receptors): 0.0086 µM
change in vivo at 5 mg/kg [3, 5]: -24%
change in vivo at 5 mg/kg [3, 6]: -18%
peripheral or central action [3]: marked central effects
change in vivo at 0.02 mg/kg (5-HT pressor responses): -78%
ED50 (5-HT pressor responses): 0.015 µmol/kg
ED50 [4]: 1.7 µmol/kg
Phenylephr. antg./5-HT antg. (ratio) [4]: 115

CN1CCC(CCN2CCN([C@H]3C[C@H](c4ccc(F)cc4)c4ccccc43)CC2)C1=O (relative stereo) [compound 23]
ED50 [1]: > 61 µmol/kg
ED50 [2]: 1.4 µmol/kg
IC50 (5-HT2 receptors): 0.016 µM
Antihypertensive eff. SHR, max eff. in % of 5 mg/kg ip, DAP [3]: -43%
Antihypertensive eff. SHR, max eff. in % of 5 mg/kg ip, SAP [3]: -31%
Effects on pressor response of 5-HT, % eff. of 0.02 mg/kg (5-HT pressor responses; pithed rats, jugular vein): -38%

O=C1NCCN1CCN1CCN([C@@H]2C[C@@H](c3ccc(F)cc3)c3ccc(F)cc32)CC1 (single isomer, unassigned) [-2]
MePh antg. ED50 [1]: > 61 µmol/kg
1-5-HTP-antg. ED50 [2]: 20 µmol/kg
IC50 (5-HT2 receptors): 0.32 µM
Antihypertensive eff. SHR, max eff. in % of 5 mg/kg ip, DAP [3]: +4%
Antihypertensive eff. SHR, max eff. in % of 5 mg/kg ip, SAP [3]: +6%
change in vivo at 0.02 mg/kg (5-HT pressor responses): 2%
Effects on pressor response of 5-HT, ED50 (5-HT pressor responses; pithed rats, jugular vein): 1.43 µmol/kg

Fc1ccc([C@@H]2C[C@@H](N3CCN(CCN4CCNC4=S)CC3)c3ccccc32)cc1 (relative stereo) [compound 27, Trans-1-[3-(4-fluorophenyl)-indan-1-yl]-4-[2-(imidazolidin-2-thion-1-yl)ethyl]piperazine]
ED50 [1]: > 61 µmol/kg
ED50 [2]: 0.48 µmol/kg
IC50 (5-HT2 receptors): 0.0047 µM
change in vivo at 5 mg/kg [3, 5]: -29%
change in vivo at 5 mg/kg [3, 6]: -18%
change in vivo at 0.02 mg/kg (5-HT pressor responses): -71%

O=C1NCCCN1CCN1CCN([C@@H]2C[C@@H](c3ccc(F)cc3)c3ccc(F)cc32)CC1 (relative stereo) [compound 25]
ED50 [1]: > 59 µmol/kg
ED50 [2]: 1.2 µmol/kg
IC50 (5-HT2 receptors): 0.012 µM
Antihypertensive eff. SHR, max eff. in % of 5 mg/kg ip, SAP/DAP (inactive) [3]: I
change in vivo at 0.02 mg/kg (5-HT pressor responses): -60%

CCN1CCN(CCN2CCN([C@@H]3C[C@@H](c4ccc(F)cc4)c4ccc(F)cc43)CC2)C1=O (relative stereo) [compound 12]
ED50 [1]: > 75 µmol/kg
ED50 [2]: 0.092 µmol/kg
IC50 (5-HT2 receptors): 0.0049 µM
change in vivo at 5 mg/kg [3, 5]: 4%
change in vivo at 5 mg/kg [3, 6]: 4%
peripheral or central action [3]: marked central effects
change in vivo at 0.02 mg/kg (5-HT pressor responses): -94%

CN1CCN(CCN2CCN([C@@H]3C[C@@H](c4ccc(F)cc4)c4ccccc43)CC2)C1=O (relative stereo) [compound 11]
ED50 [1]: > 80 µmol/kg
ED50 [2]: 1.4 µmol/kg
IC50 (5-HT2 receptors): 0.013 µM
change in vivo at 5 mg/kg [3, 5]: -8%
change in vivo at 5 mg/kg [3, 6]: -6%
change in vivo at 0.02 mg/kg (5-HT pressor responses): -81%

O=C1NCCN1CCN1CCN([C@@H]2C[C@@H](c3ccc(F)cc3)c3ccccc32)CC1 (single isomer, unassigned) [-1]
MePh antg. ED50 [1]: > 97 µmol/kg
1-5-HTP-antg. ED50 [2]: 8.9 µmol/kg
IC50 (5-HT2 receptors): 0.13 µM
Antihypertensive eff. SHR, max eff. in % of 5 mg/kg ip, DAP [3]: -11%
Antihypertensive eff. SHR, max eff. in % of 5 mg/kg ip, SAP [3]: -3%
Effects on pressor response of 5-HT, % eff. of 0.02 mg/kg (5-HT pressor responses; pithed rats, jugular vein): -11%

CN1CCN(CCN2CCN([C@@H]3C[C@@H](c4ccc(F)cc4)c4ccc(F)cc43)CC2)C1=O (single isomer, unassigned) [-3]
MePh antg. ED50 [1]: > 91 µmol/kg
1-5-HTP-antg. ED50 [2]: 45 µmol/kg
IC50 (5-HT2 receptors): 0.41 µM
Antihypertensive eff. SHR, max eff. in % of 5 mg/kg ip, SAP/DAP (inactive) [3]: I
Effects on pressor response of 5-HT, % eff. of 0.02 mg/kg (5-HT pressor responses; pithed rats, jugular vein): -6%
